From patent US12410157B2, “Compound useful as toll-like receptor 7 activation inhibitor” (TOYAMA PREFECTURAL UNIVERSITY, priority 2020, dated 2025)
Where “and” joins values, the source holds several entries; their conditions need not be identical. Identical values can stand only once.

What was measured:
[1] = Plasma concentration in mouse model of systemic lupus erythematosus after oral administration; type: in vivo; details: NZBWF1 mice, 5 mg/kg orally
Method: Plasma concentrations of B2-24-4-5A·HCOOH were determined after oral administration of B2-24-4-5A·HCOOH in a mouse model of systemic lupus erythematosus (NZBWF1, 20 weeks old, female). 5 mg/kg of B2-24-4-5A·HCOOH was administered orally to NZBWF1 mice. After 0.5, 1, 2, 4, 8, 16, or 24 hours, blood was collected from NZBWF1 mice to prepare plasma. The concentration of B2-24-4-5A·HCOOH in the plasma was determined by LC/MS/MS.

[2] = system: systemic lupus erythematosus model mice (NZBWF1); experiment: Therapeutic effect in mouse model of spontaneous systemic lupus erythematosus; type: in vivo
Method: Systemic lupus erythematosus model mice (NZBWF1, 20 weeks old, female, n=55) were divided into saline-administered group (control, n=25), B2-24-4-5A·HCOOH-administered group (n=10), B2-24-4·HCOOH-administered group (n=5) and HCQ-administered group (n=15). The saline-administered group received saline (100 l) orally once a day, every day; the B2-24-4-5A·HCOOH-administered group received 10 mg/kg of B2-24-4-5A·HCOOH (100 l) orally once a day, every day; the B2-24-4·HCOOH-administered group received 10 mg/kg of B2-24-4·HCOOH (100 l) orally once a day, every day; the HCQ-administered group received 10 mg/kg of HCQ (100 l) orally once a day, every day. Fifteen weeks after the start of treatment, urine was collected from surviving mice in the saline-administered group (control, n=17), B2-24-4-5A·HCOOH-administered group (n=10), B2-24-4·HCOOH-administered group (n=5), and HCQ-administered group (n=12), and the mice were euthanized. After euthanasia, blood was drawn from the abdominal aorta of the mice, and the kidneys and spleen were removed.
Mice that died of natural causes during the 15-week period from the start of treatment were counted as deaths, and survival analysis was performed using the Kaplan Meier method. Blood collected from the abdominal aorta of each mouse, excluding the deceased cases, was centrifuged and serum was prepared. Determination of urea nitrogen and creatinine levels in serum was entrusted to Oriental Yeast Co. Albumin levels in urine were determined by ELISA (used kit: Levis Urinary Albumin-Mouse (S-type) (trade name) (Fujifilm Wako Shibayagi Corporation)). The removed kidneys were fixed with 4% (w/v) paraformaldehyde, and immunohistochemical staining was entrusted to Morpho Technology, Inc. In PAS-stained kidney tissue sections, histological findings of 100 glomeruli were evaluated. For increased cells and substrate in the mesangial area, endothelial cell swelling and cellular infiltration of the capillary lumen (intratubular proliferation), and glomeruli with inflammatory crescents (extratubular proliferation), each of the 100 glomeruli was assigned a grade from grade 0 to grade 2 according to severity and scored on a 6-point scale.
FIG. 10F is a photograph showing C3 deposition in the glomeruli of a mouse (#1) in the saline-administered group, a mouse (#10) in the B2-24-4-5A·HCOOH-administered group, a mouse (#4) in the B2-24-4·HCOOH-administered group and a mouse (#14) in the HCQ-administered group. […] In the renal tissue sections of a mouse (#1) in the saline-administered group, findings of active glomerulonephritis such as diffuse mesangial and intratubular proliferation were observed. […] The plots in FIGS. 10B, 10C, and 10D show the data for each individual, each bold line is the mean of the group data, and each error bar standard error. Scale bars in FIGS. 10E and 10F represent 100 μm. […]

## C=C(C)[C@@H]1CC[C@]2(COC(=O)C2)C[C@H]1c1ccc(CN2CCNCC2)cc1 [B2-24-4-5A·HCOOH]
[1]
  Plasma level after 8 hours: near-bottom level
[1]; female, mouse, plasma, po, LC/MS/MS
  concentration at 0.5 h: 88.1 ng/mL
[2]; 10 mg/kg orally once a day, groups started with n=10, n=5, n=15 (HCQ)
  Surviving mice fifteen weeks after the start of treatment: 10
[2]; per mouse, histological score on a 6-point scale
  score: 0.23 and 0.15 and 0.42 and 0.09 (2×) and 0.24 and 0.03 and 0.04 and 0.14 and 0.52
[2]; per mouse, of 100 glomeruli, endothelial cell swelling and cellular infiltration of capillary lumen, Grade 0
  Inside 0: 99 (2×) and 100 (3×) and 78 and 96 and 94 and 97 and 74
[2]; per mouse, of 100 glomeruli, endothelial cell swelling and cellular infiltration of capillary lumen, Grade 1
  Inside 1: 1 (2×) and 0 (3×) and 18 and 4 and 6 and 3 and 20
[2]; per mouse, of 100 glomeruli, endothelial cell swelling and cellular infiltration of capillary lumen, Grade 2
  Inside 2: 0 (8×) and 4 and 6
[2]; per mouse, of 100 glomeruli, glomerulus with semilunar, Grade 0
  Outside 0: 99 and 100 (9×)
[2]; per mouse, of 100 glomeruli, glomerulus with semilunar, Grade 1
  Outside 1: 1 and 0 (9×)
[2]; per mouse, of 100 glomeruli, glomerulus with semilunar, Grade 2
  Outside 2: 0
[2]; per mouse, of 100 glomeruli, increase in cells and substrates in the mesangium region, Grade 0: None, 10 mg/kg orally, 15 weeks, 10 mg/kg
  Mes0: 80 (3×) and 86 (2×) and 92 (2×) and 97 and 96 and 94
[2]; per mouse, of 100 glomeruli, mesangium region, Grade 1: Moderate or lower
  Mes1: 19 and 13 and 12 and 8 (2×) and 20 (2×) and 3 and 4 and 6
[2]; per mouse, of 100 glomeruli, mesangium region, Grade 2: Moderate or higher
  Mes2: 1 (2×) and 2 and 0 (7×)
